Test results: patent US12409160B1, “Compositions and methods for treatment of peri-implantitis and periodontitis” (Cusp Biosciences, Inc., priority 2025, dated 2025)

Tests used:
[1] = test system: RAW 264.7 pre-osteoclasts; assay: Osteoclastogenesis: hPDLC medium on RAW 264.7 pre-osteoclasts, TRAP staining; type: cell-based
[2] = test system: human periodontal ligament cells (hPDLCs); assay: Cell viability (MTT) of hPDLCs; type: cell-based; settings: Day 1 (24 h)
[3] = test system: human periodontal-ligament fibroblasts (hPDLFs) and CD14+ monocytes; assay: hPDLF / CD14+ monocyte trans-well co-culture, ELISA of supernatants; type: cell-based
Experimental: Culture primary human periodontal-ligament fibroblasts ([…]) and autologous CD14^+ monocytes in a trans-well co-culture that recapitulates the paracrine crosstalk driving osteoclastogenesis. After 24 h equilibration, expose triplicate wells to: (i) vehicle (0.1% DMSO); […] At 48 h collect supernatants and lysates. • a. […] Secondary Read-Outs: • a.

hPDLF monolayers = assay: Scratch-wound closure in hPDLF monolayers; type: cell-based, human; settings: over 24 h after treatment
[4] = test system: hPDLF / CD14+ monocyte co-culture; assay: TRAP-positive multinucleated osteoclasts on bone slices after seven-day co-culture; type: cell-based, human
Experimental: Culture primary human periodontal-ligament fibroblasts (hPDLFs) and autologous CD14^+ monocytes in a trans-well co-culture that recapitulates the paracrine crosstalk driving osteoclastogenesis. […] At 48 h collect supernatants and lysates.
• a. […] Secondary Read-Outs: • a.

[5] = cited from earlier work
[6] = test system: human periodontal ligament cells (hPDLCs); assay: IL-1β and TNF-α in supernatant (ELISA) of LPS-challenged hPDLCs under CoCl2; type: cell-based; settings: 2 μM simvastatin, LPS 1 μg/ml, vs LPS-Veh

Compound: CS(=O)(=O)c1ccc(Oc2cc(F)cc(C#N)c2)c2c1[C@H](O)[C@H](F)[C@@H]2F [Belzutifan, belzutifan]
- reduction in osteoclast formation ([1]; at 1%): ≥ 65%
- Viability (% of No-Stim) [2]: > 90%
- cut of RANKL and pro-inflammatory cytokines versus vehicle ([3]; ELISA at 48 h, belzutifan 0.1, 1, 10 nM): ≥ 70%
- VEGF preserved, of VEGF seen in vehicle ([3]; VEGF-A secretion, 48 h): ≥ 80%
- scratch-wound closure kinetics (hPDLF monolayers): retain normal closure kinetics
- cut of osteoclast formation ([4]; at 1 nM): > 60%
- solubility in DMSO ([5]; DMSO, 25° C.): ≈ 77 mg mL-1
- solubility in ethanol ([5]; ethanol): sparingly soluble
- solubility in water ([5]; water across pH 1-8): practically insoluble

Compound: CCC(C)(C)C(=O)O[C@H]1C[C@@H](C)C=C2C=C[C@H](C)[C@H](CC[C@@H]3C[C@@H](O)CC(=O)O3)[C@H]21 [SIMV, simvastatin]
- IL-1β (24 h), decrease (↓) [6]: ↓ 25%
- TNF-α (24 h), decrease (↓) [6]: ↓ 20%
- TRAP+ osteoclasts (cells per well) ([1]; 2 μM simvastatin): 85 cells per well

Compound: COC(=O)CNC(=O)C(=O)OC [DMOG]
- effect on osteoclast formation ([4]; DMOG 1 mM): increases
